Results on seven compounds are retold here after publication PMC5395518, “Design, synthesis, and biological evaluation of the novel glycyrrhetinic acid-cinnamoyl hybrids as anti-tumor agents” (Chemistry Central Journal, 2016).

For orientation: IC50 means the concentration that inhibits the measured activity by half.

One series has as its system H9C2 cells. Kind of series: MTT cytotoxicity assay, H9C2 (non-tumor). To be noted: for IC50: MTT, 72 h, mean ± SD (n = 3), non-tumor cells. It is filed as cell-based, rat. From the text:
(§1) HepG2 (human hepatocellular carcinoma), Hela (human cervical cancer), HT-29 (human colon carcinoma), MDCK (Madin–Darby canine kidney), H9C2 (rat myocardial cells) and HY926 were purchased from the Chinese Academy of Medical Sciences and Peking Union Medical College. All of these cell lines were maintained in RPMI-1640 (DMEM) supplemented with 10% (v/v) fetal bovine serum (FBS) and 1% (v/v) penicillin/streptomycin (Thermo Technologies, New York, NY, USA) under a humidified atmosphere containing 5% CO2 at 37 °C. To provide stock solutions which were used to prepare various concentrations of treatment media, GA and hybrids were added a volume of DMSO.
(§2) The cytotoxicity of these compounds was evaluated on three human cancer cell lines (HepG2, HT-29, Hela) and three non-tumor cells lines (MDCK, HY926, H9C2) and MTT assay was performed to detect the cell proliferation. Simply, exponentially growing cells were cultured in 96-well plates (3 × 10^3 cells/well). And the plates were placed in a humidified atmosphere for 72 h at 37 °C with 5% CO2. After added MTT solution (5 mg/mL) 20 μL to each well, the plate was incubated for a further 4 h. Then the cell supernatant was removed and 150 μL DMSO was added. Finally, the absorbance was determined at wavelength of 490 nm with the ELISA. Wells without drugs were used to be blanks. The IC50 values were calculated using Logit-method. The following Eq. (1) was proposed to calculate the inhibitory rate of cell growth:1 %inhibition=1-Sample group OD/Control group OD×100%
For orientation: Tetrazolium assays rely on reduction of a dye to a coloured formazan, in cell work by metabolically active cells.

For another series, the system named is MDCK cells. Briefly: MTT cytotoxicity assay, MDCK (non-tumor). The settings on record: for IC50: MTT, 72 h, mean ± SD (n = 3), non-tumor cells. It is filed as cell-based, canine.
Text: as §1, §2

The next series deals with HT-29 cells. Briefly: MTT cytotoxicity assay, HT-29. It is filed as cell-based, human. The settings on record: mean ± SD (n = 3).
Text: as §1, §2

The next series deals with HY926 cells. Kind of series: MTT cytotoxicity assay, HY926 (non-tumor). In kind it is cell-based. To be noted: for IC50: MTT, 72 h, mean ± SD (n = 3), non-tumor cells.
Text: as §1, §2

The subject of series [1] is Hela cells. Kind of series: MTT cytotoxicity assay, Hela. It is filed as cell-based, human. The settings on record: for IC50: MTT, 72 h, mean ± SD (n = 3).
Text: as §1, §2

The test system of another series is HepG2 cells. Kind of series: MTT cytotoxicity assay, HepG2. In kind it is cell-based, human. The settings on record: mean ± SD (n = 3).
Text: as §1, §2

The subject of series [2] is Hela cells. Briefly: Giemsa staining on Hela cells. In kind it is cell-based, human. The settings on record: 5, 10, 20 μM, 72 h, with increase of concentration. As to the method:
Hela cells were seeded in 12-well plates (5 × 10^3 cells/well), and then they were cultured for 24 h at 37 °C with 5% CO2. After that each group was added 8a, making the final concentration of 0, 5, 10, 20 μM respectively. After 72 h, the cell supernatant was removed and the cells were cleaned with PBS twice, then kept in PBS/ethanol (1:1) for 2 min and fixed with cold ethanol for 10 min. After discarding ethanol, the cells were stained with Giemsa (Giemsa, Molecular Probes/Invitrogen Life Technologies, Carlsbad, CA, USA) stained for 5 min and washed with water. In the end, the cells were observed and photographed under inverted phase-contrast microscope at a magnification of 200×.

In series [3] the test system is Hela cells. Kind of series: Annexin V-FITC/PI flow cytometric apoptosis assay. In kind it is cell-based, human. The settings on record: 72 h, control 7.5%. As to the method: Hela cells were seeded in 12-well plates (5 × 10^4 cells/well), which were placed in a humidified atmosphere for 24 h at 37 °C with 5% CO2. After treated with different concentrations of 8a (5, 10, 20 μM) for 72 h, all cells were collected respectively with the right amount of trypsin (without EDTA) digestion. After added 1 mL cold PBS, the cells were gently suspended and centrifuged at 1000 rpm for 5 min. The harvested cells were suspended in 200 μL binding buffer which contained 10 μL Annexin V-FITC and PI. After avoided light reaction for 15 min, the cells were analyzed with a flow cytometry (BD, USA).
For orientation: A flow cytometer gives signals particle by particle.

Another series has as its system Kunming mice. Briefly: Acute toxicity by gavage in Kunming mice. In kind it is in vivo. The text has this:
Forty healthy Kunming mice (weight 18–22 g) of both sexes were purchased from Beijing Vital River Laboratory Animal Technology Company Limited (Beijing, China). The mice were divided into two groups matched the same weight and size, along with the standard in our previous studies. In briefly, 20 mice were selected for blank control group, and the other 20 mice were for the treated group. All experiments followed the guidelines of “Regulation for the Administration of Affairs Concerning Experimental Animals” (State Council of China, 1988). All animals were placed in cages, fed with standard rodent chow and water ad libitum under a 12-h light–dark cycle. Before the experiments, the mice were deprived of food for 12 h but provided water freely. Then the treated group of both sexes were administered a single dose of 8a (0.3 mL/10 g) via gavage twice a day, which was prepared in advance in bean oil solution with the maximum suspended dose (50 mg/mL). The total administration of 8a was 3 g/kg during 8 h. And the blank control group were given bean oil by oral administration only. The mice’s general behavior was continuously noted in the first hour, intermittently observed in the next 4 h, and thereafter over a period of 24 h. Observations of the signs for toxicity and deaths were last for 14 days. The mortality response and behavior of toxic effects of mice were recorded.

The subject of another series is caspase-3. Kind of series: Caspase-3 activity assay (Ac-DEVD-pNA cleavage) in Hela cells. In kind it is cell-based, human. The settings on record: 5, 10, 20 μM, 48 h. As to the method: Hela cells were seeded in dishes at a density of 5 × 10^5 cell per dish and the dishes were kept at 37 °C with 5% CO2 for 24 h. On the next day, various concentration of 8a (0, 5, 10, 20 μM) were added to the cells and cultured for 48 h. Pre-cooled PBS were added twice to wash the cells. After removal of the medium, ice-cold cell lysis buffer was added, and the cells were further incubated in an ice bath for 15 min, which contribute to the protein acquisition. The caspase-3 activity kit (Beyotime Institute of Biotechnology, Beijing, China) was used to determine the activity of caspase-3. A total of 50 μL cell lysates, 40 μL reaction buffer and 10 μL caspase-3 substrate (Ac-DEVDpNA) (2 mM) were added to 96-well plates. After 30 min of incubation, absorbance was measured at 405 nm, and samples were quantified with ELISA.

Series [4] concerns Hela cells. Briefly: H33342 staining on Hela cells. To be noted: 5, 10, 20 μM, 72 h, with increase of concentration. It is filed as cell-based, human. How it is done: H33342 staining was used to confirm whether the characteristic nuclear changes were associated with 8a in this assay. Hela cells were cultured in 12-well plates (5 × 10^4 cells/well), which were placed in a humidified atmosphere for 24 h at 37 °C with 5% CO2. And then each group was added 8a, making the final concentration of 0, 5, 10, 20 μM respectively. After 72 h, cell culture medium was discarded and the cells were washed twice with PBS. H33342 staining was then performed for 2 min and washed with water. In the end, the cells were observed and photographed under inverted phase-contrast microscope at a magnification of 200×.

For `COc1ccc(C=CC(=O)OC2CCC3(C)C(CCC4(C)C3C(=O)C=C3C5CC(C)(C(=O)O)CCC5(C)CCC34C)C2(C)C)cc1` (stereo not drawn) [Compound 5a, (4-Methoxy) cinnamoyl-3β-hydroxy-11-oxoolean-12-en-30-oic acid], the IC50 is 36.1 ± 1.92 µM in the series with H9C2 cells; 21.7 ± 1.01 µM in the series on MDCK cells; 33 ± 1.92 µM in the series on HT-29 cells (72 h); above 50 µM in the series with HY926 cells; 23.4 ± 1.38 µM with Hela cells [1]; 31.2 ± 1.34 µM with HepG2 cells (72 h).

Regarding `COc1cccc(/C=C/C(=O)OC2CCC3(C)C(CCC4(C)C3C(=O)C=C3C5CC(C)(C(=O)O)CCC5(C)CCC34C)C2(C)C)c1OC` (stereo not drawn) [Compound 6a, (2,3-Dimethoxy) cinnamoyl-3β-hydroxy-11-oxoolean-12-en-30-oic acid], the concentration for half-maximal inhibition (IC50) with H9C2 cells is above 50 µM; in the series with MDCK cells it was 33.7 ± 1.4 µM; with HT-29 cells (72 h), 24.4 ± 1.76 µM; with HY926 cells, 25 ± 1.38 µM; in the series with Hela cells [1], 22.5 ± 2.08 µM; in the series with HepG2 cells (72 h), 24.4 ± 1.44 µM.

Turning to `COc1ccc(OC)c(/C=C/C(=O)OC2CCC3(C)C(CCC4(C)C3C(=O)C=C3C5CC(C)(C(=O)O)CCC5(C)CCC34C)C2(C)C)c1` (stereo not drawn) [Compound 7a, (2,5-Dimethoxy) cinnamoyl-3β-hydroxy-11-oxoolean-12-en-30-oic acid], the IC50 with H9C2 cells is above 50 µM; with MDCK cells, above 50 µM; with HT-29 cells (72 h), 26.4 ± 1.96 µM; with HY926 cells it was 45.1 ± 2.25 µM; in the series on Hela cells [1], 28 ± 1.63 µM; in the series with HepG2 cells (72 h) it was 25.4 ± 1.97 µM.

With `COc1ccc(/C=C/C(=O)OC2CCC3(C)C(CCC4(C)C3C(=O)C=C3C5CC(C)(C(=O)O)CCC5(C)CCC34C)C2(C)C)c(OC)c1OC` (stereo not drawn) [Compound 8a, (2,3,4-Trimethoxy) cinnamoyl-3β-hydroxy-11-oxoolean-12-en-30-oic acid], the “inhibition rate against H9C2” value with H9C2 cells (12.5 μM) is reported as 3.56%. Also, the IC50 with H9C2 cells was above 50 µM; in the series with MDCK cells, 31.8 ± 2.79 µM; in the series with HT-29 cells (72 h), 15 ± 1.26 µM; in the series on HY926 cells, 27.7 ± 1.39 µM; in the series with Hela cells [1] it was 8.54 ± 1.44 µM; in the series on HepG2 cells (72 h), 21.5 ± 1.5 µM. In the series on Hela cells [2], the “morphological changes by Giemsa staining” value was “cell loss, nuclei lysis, chromatin condensation and cytoplasmic shrinkage were aggravated”. Moreover, the apoptosis ratio is 15.7% in the series on Hela cells [3] (5 μM), 27.7% with Hela cells [3] (10 μM) and 60% in the series with Hela cells [3] (20 μM). Besides, in the series on MDCK cells (12.5 μM), the “inhibition rate against MDCK” value came out at 38.56%. Besides, the “signs of toxicity or deaths” value in the series with Kunming mice (maximum tolerated dose 3 g/kg oral (gavage), 2 weeks observation, mice) is reported as “no signs of toxicity or deaths were observed”. Besides, in the series with Kunming mice (oral administration in mice), the LD50 result is “exceeded 3.0 g/kg”. The “inhibition rate against HY926” value with HY926 cells (12.5 μM) was determined as 20.20%. In addition, the “inhibition rate against Hela” value with Hela cells [1] (12.5 μM) was determined as 59.20%. For the same compound, in the series on caspase-3, the “caspase-3 activities in Hela cells” value is recorded as “enhanced in a concentration-dependent manner”. Further, the “nuclear changes by H33342 staining” value in the series on Hela cells [4] is “the nuclear fragmentation, the cytoplasmic shrinkage, and the shape of apoptotic cells became irregular”.

`COc1cc(/C=C/C(=O)O[C@H]2CC[C@]3(C)[C@H]4C(=O)C=C5[C@@H]6C[C@@](C)(C(=O)O)CC[C@]6(C)CC[C@@]5(C)[C@]4(C)CC[C@H]3C2(C)C)cc(OC)c1OC` [Compound 9a, (3,4,5-Trimethoxy) cinnamoyl-3β-hydroxy-11-oxoolean-12-en-30-oic acid]: the IC50 with H9C2 cells came to 47.4 ± 1.07 µM; in the series with MDCK cells, 27.7 ± 1.08 µM; in the series on HT-29 cells (72 h) it was 25.5 ± 1.29 µM; with HY926 cells, 30.8 ± 1.37 µM; with Hela cells [1], 30.7 ± 1.89 µM; in the series with HepG2 cells (72 h), 21.9 ± 1.41 µM.

As for `N.N.[Cl][Pt][Cl]` [DPP, cisplatin, reference compound], the IC50 is 5.31 ± 0.26 µM in the series with H9C2 cells; below 10 µM in the series with H9C2 cells (listed as DDP); 9.97 ± 1.12 µM with MDCK cells; below 10 µM in the series on MDCK cells (listed as DDP); 5.28 ± 0.74 µM in the series on HT-29 cells (72 h); 5.12 ± 0.71 µM with HY926 cells. Further, the IC50 in the series on HY926 cells (listed as DDP) was below 10 µM; in the series with Hela cells [1] it was 3.76 ± 0.38 µM; with HepG2 cells (72 h), 4.57 ± 0.85 µM.

In the case of `CC1(C)[C@@H](O)CC[C@]2(C)[C@H]3C(=O)C=C4[C@@H]5C[C@@](C)(C(=O)O)CC[C@]5(C)CC[C@@]4(C)[C@]3(C)CC[C@@H]12` [GA, Glycyrrhetinic acid], the IC50 with H9C2 cells (Rattus norvegicus, H9c2) is above 100 µM; in the series with MDCK cells (Canis lupus familiaris, MDCK), above 100 µM; in the series with HT-29 cells (Homo sapiens, HT-29, 72 h), above 50 µM; with HY926 cells, above 100 µM; in the series on Hela cells [1] (Homo sapiens, HeLa) it was above 50 µM; with HepG2 cells (Homo sapiens, HepG2, 72 h), above 50 µM.
